Source: US10961248B2, “Pesticidally active heterocyclic derivatives with sulfur containing substituents” (SYNGENTA PARTICIPATIONS AG, priority 2016, dated 2021)

Legend:
Assay type in all cases: in vivo
[1] = test system: Frankliniella occidentalis (Western Flower Thrips); experiment: Example B4: activity against Frankliniella occidentalis, sprayed sunflower leaf discs; conditions: foliar, 168 h, application rate 200 ppm, population of mixed ages, 7 days after infestation
Protocol: Sunflower leaf discs were placed on agar in 24-well microtiter plates and sprayed with aqueous test solutions prepared from 10'000 DMSO stock solutions. After drying the leaf discs were infested with a Frankliniella population of mixed ages. The samples were assessed for mortality 7 days after infestation.

[2] = test system: Euschistus heros (Neotropical Brown Stink Bug); experiment: Example B6: activity against Euschistus heros, sprayed soybean leaf; conditions: 120 h, application rate 200 ppm, N-2 nymphs, 5 days after infestation, read-out: effect in at least one of the two categories (mortality or growth inhibition)
Protocol: Soybean leaf on agar in 24-well microtiter plates were sprayed with aqueous test solutions prepared from 10'000 ppm DMSO stock solutions. After drying the leaf were infested with N-2 nymphs. The samples were assessed for mortality and growth inhibition in comparison to untreated samples 5 days after infestation.

[3] = test system: Plutella xylostella (Diamond Back Moth); experiment: Example B1: activity against Plutella xylostella, artificial diet in 24-well plates; conditions: 120 h, application rate 200 ppm, L2 larvae on artificial diet, 5 days after infestation, read-out: effect in at least one of the two categories (mortality or growth inhibition)
Protocol: (§1) 24-well microtiter plates with artificial diet were treated with aqueous test solutions prepared from 10'000 ppm DMSO stock solutions by pipetting. After drying, the plates were infested with L2 larvae (10 to 15 per well). The samples were assessed for mortality and growth inhibition in comparison to untreated samples 5 days after infestation.

[4] = test system: Myzus persicae (Green Peach Aphid); experiment: Example B2: activity against Myzus persicae, sprayed sunflower leaf discs; conditions: foliar, 144 h, application rate 200 ppm, aphid population of mixed ages, 6 days after infestation
Protocol: Sunflower leaf discs were placed on agar in a 24-well microtiter plate and sprayed with aqueous test solutions prepared from 10'000 ppm DMSO stock solutions. After drying, the leaf discs were infested with an aphid population of mixed ages. The samples were assessed for mortality 6 days after infestation.

[5] = test system: Bemisia tabaci (Cotton White Fly); experiment: Example B5: activity against Bemisia tabaci, sprayed cotton leaf discs; conditions: foliar, 144 h, application rate 200 ppm, adult white flies, 6 days after incubation
Protocol: Cotton leaf discs were placed on agar in 24-well microtiter plates and sprayed with aqueous test solutions prepared from 10'000 ppm DMSO stock solutions. After drying the leaf discs were infested with adult white flies. The samples were checked for mortality 6 days after incubation.

[6] = test system: Myzus persicae (Green Peach Aphid); experiment: Example B3: activity against Myzus persicae, roots of pea seedlings in test solution; conditions: 144 h, test rate 24 ppm, roots of infested pea seedlings in test solution, 6 days
Protocol: Roots of pea seedlings infested with an aphid population of mixed ages were placed directly in the aqueous test solutions prepared from 10'000 DMSO stock solutions. The samples were assessed for mortality 6 days after placing seedlings in test solutions.

[7] = test system: Spodoptera littoralis (Egyptian Cotton Leaf Worm); experiment: Example B7: activity against Spodoptera littoralis, sprayed cotton leaf discs; conditions: foliar, 72 h, application rate 200 ppm, L1 larvae, 3 days after infestation
Protocol: Cotton leaf discs were placed onto agar in 24-well microtiter plates and sprayed with aqueous test solutions prepared from 10'000 ppm DMSO stock solutions. After drying the leaf discs were infested with five L1 larvae. The samples were assessed for mortality, anti-feeding effect, and growth inhibition in comparison to untreated samples 3 days after infestation. Control of Spodoptera littoralis by a test sample is given when at least one of the categories mortality, anti-feedant effect, and growth inhibition is higher than the untreated sample.

[8] = test system: Diabrotica Balteata (Corn Root Worm); experiment: Example B7: activity against Diabrotica balteata, sprayed maize sprouts; conditions: 96 h, application rate 200 ppm, L2 larvae, 4 days after infestation, read-out: effect in at least one of the two categories (mortality or growth inhibition)
Protocol: as §1, with “Maize sprouts placed onto an agar layer in 24-well” for “24-well”, “plates” for “plates with artificial diet”, “spraying.” for “pipetting.”, “(6” for “(10”, “10” for “15”, “4” for “5”

CCS(=O)(=O)c1cc(N=S(C)(C)=O)cnc1-c1cn2cnc(C(F)(F)F)cc2n1 [P1, [5-ethylsulfonyl-6-[7-(trifluoromethyl)imidazo[1,2-c]pyrimidin-2-yl]-3-pyridyl]imino-dimethyl-oxo-λ^6-sulfane]
≥ 80%: mortality at 200 ppm [1] | percent effect (mortality or growth inhibition) at 200 ppm [2] | percent effect (mortality or growth inhibition) at 200 ppm [3] | mortality at 200 ppm [4] | mortality at 200 ppm [5] | mortality at 24 ppm [6] | percent control (mortality, anti-feedant effect or growth inhibition) at 200 ppm [7]

CCS(=O)(=O)c1cc(N=S2(=O)CCOCC2)cnc1-c1nc2cc(C(F)(F)F)ncc2n1C [P5, 4-[[5-ethylsulfonyl-6-[3-methyl-6-(trifluoromethyl)imidazo[4,5-c]pyridin-2-yl]-3-pyridyl]imino]-1,4-oxathiane 4-oxide]
≥ 80%: mortality at 200 ppm [1] | percent effect (mortality or growth inhibition) at 200 ppm [2] | percent effect (mortality or growth inhibition) at 200 ppm [3] | mortality at 200 ppm [4] | mortality at 200 ppm [5] | mortality at 24 ppm [6] | percent control (mortality, anti-feedant effect or growth inhibition) at 200 ppm [7]

CCS(=O)(=O)c1cc(N=S2(=O)CCCC2)cnc1-c1nc2cc(C(F)(F)F)ncc2n1C [P6, 1-[[5-ethylsulfonyl-6-[3-methyl-6-(trifluoromethyl)imidazo[4,5-c]pyridin-2-yl]-3-pyridyl]imino]thiolane 1-oxide]
≥ 80%: mortality at 200 ppm [1] | percent effect (mortality or growth inhibition) at 200 ppm [2] | percent effect (mortality or growth inhibition) at 200 ppm [3] | mortality at 200 ppm [4] | mortality at 200 ppm [5] | mortality at 24 ppm [6]

CCS(=O)(=O)c1cc(N=S(C)(=O)C2CC2)cnc1-c1cn2cnc(C(F)(F)F)cc2n1 (stereo not drawn) [P8, cyclopropyl-[[5-ethylsulfonyl-6-[7-(trifluoromethyl)imidazo[1,2-c]pyrimidin-2-yl]-3-pyridyl]imino]-methyl-oxo-λ^6-sulfane]
≥ 80%: mortality at 200 ppm [1] | percent effect (mortality or growth inhibition) at 200 ppm [8] | percent effect (mortality or growth inhibition) at 200 ppm [2] | percent effect (mortality or growth inhibition) at 200 ppm [3] | mortality at 200 ppm [4] | mortality at 200 ppm [5] | mortality at 24 ppm [6] | percent control (mortality, anti-feedant effect or growth inhibition) at 200 ppm [7]

CCS(=O)(=O)c1cc(N=S(C)(=O)C2CC2)cnc1-n1cc2cnc(C(F)(F)F)cc2n1 (stereo not drawn) [P12, cyclopropyl-[[5-ethylsulfonyl-6-[6-(trifluoromethyl)pyrazolo[4,3-c]pyridin-2-yl]-3-pyridyl]imino]-methyl-oxo-λ^6-sulfane]
≥ 80%: mortality at 200 ppm [1] | percent effect (mortality or growth inhibition) at 200 ppm [8] | percent effect (mortality or growth inhibition) at 200 ppm [2] | percent effect (mortality or growth inhibition) at 200 ppm [3] | mortality at 200 ppm [4] | mortality at 200 ppm [5] | percent control (mortality, anti-feedant effect or growth inhibition) at 200 ppm [7]

CCS(=O)(=O)c1cc(N=S2(=O)CCC2)cnc1-c1cn2cnc(C(F)(F)F)cc2n1 [P13, 1-[[5-ethylsulfonyl-6-[7-(trifluoromethyl)imidazo[1,2-c]pyrimidin-2-yl]-3-pyridyl]imino]thietane 1-oxide]
≥ 80%: mortality at 200 ppm [1] | percent effect (mortality or growth inhibition) at 200 ppm [2] | percent effect (mortality or growth inhibition) at 200 ppm [3] | mortality at 200 ppm [4] | mortality at 200 ppm [5] | mortality at 24 ppm [6] | percent control (mortality, anti-feedant effect or growth inhibition) at 200 ppm [7]

CCS(=O)(=O)c1cc(N=S(C)(C)=O)ccc1-c1cn2cnc(C(F)(F)F)cc2n1 [P14, [3-ethylsulfonyl-4-[7-(trifluoromethyl)imidazo[1,2-c]pyrimidin-2-yl]phenyl]imino-dimethyl-oxo-λ^6-sulfane]
≥ 80%: percent effect (mortality or growth inhibition) at 200 ppm [2] | percent effect (mortality or growth inhibition) at 200 ppm [3] | mortality at 200 ppm [4] | mortality at 200 ppm [5] | mortality at 24 ppm [6]

CCS(=O)(=O)c1cc(N=S(C)(=O)C2CC2)ccc1-c1cn2cnc(C(F)(F)F)cc2n1 (stereo not drawn) [P15, cyclopropyl-[3-ethylsulfonyl-4-[7-(trifluoromethyl)imidazo[1,2-c]pyrimidin-2-yl]phenyl]imino-methyl-oxo-λ^6-sulfane]
≥ 80%: percent effect (mortality or growth inhibition) at 200 ppm [8] | percent effect (mortality or growth inhibition) at 200 ppm [2] | percent effect (mortality or growth inhibition) at 200 ppm [3] | mortality at 200 ppm [4]

CCS(=O)(=O)c1cc(N=S(C)(C)=O)cnc1-n1cc2cnc(C(F)(F)F)cc2n1 [P16, [5-ethylsulfonyl-6-[6-(trifluoromethyl)pyrazolo[4,3-c]pyridin-2-yl]-3-pyridyl]imino-dimethyl-oxo-λ^6-sulfane]
≥ 80%: mortality at 200 ppm [1] | percent effect (mortality or growth inhibition) at 200 ppm [8] | percent effect (mortality or growth inhibition) at 200 ppm [2] | percent effect (mortality or growth inhibition) at 200 ppm [3] | mortality at 200 ppm [4] | mortality at 200 ppm [5] | mortality at 24 ppm [6] | percent control (mortality, anti-feedant effect or growth inhibition) at 200 ppm [7]

CCS(=O)(=O)c1cc(N=S(C)C)cnc1-c1nc2cc(C(F)(F)F)ncc2n1C [P17, [5-ethylsulfonyl-6-[3-methyl-6-(trifluoromethyl)imidazo[4,5-c]pyridin-2-yl]-3-pyridyl]imino-dimethyl-λ^4-sulfane]
≥ 80%: percent effect (mortality or growth inhibition) at 200 ppm [8] | percent effect (mortality or growth inhibition) at 200 ppm [2] | mortality at 200 ppm [4]

CCS(CC)=Nc1cnc(-c2nc3cc(C(F)(F)F)ncc3n2C)c(S(=O)(=O)CC)c1 [P18]
≥ 80%: percent effect (mortality or growth inhibition) at 200 ppm [8] | percent effect (mortality or growth inhibition) at 200 ppm [2] | mortality at 200 ppm [4]

CCS(=O)(=O)c1cc(N=S(C)(=O)CC)cnc1-c1nc2cc(C(F)(F)F)ncc2n1C (stereo not drawn) [P19, ethyl-[[5-ethylsulfonyl-6-[3-methyl-6-(trifluoromethyl)imidazo[4,5-c]pyridin-2-yl]-3-pyridyl]imino]-methyl-oxo-λ^6-sulfane]
≥ 80%: mortality at 200 ppm [1] | percent effect (mortality or growth inhibition) at 200 ppm [8] | percent effect (mortality or growth inhibition) at 200 ppm [2] | percent effect (mortality or growth inhibition) at 200 ppm [3] | mortality at 200 ppm [4] | mortality at 200 ppm [5] | mortality at 24 ppm [6]

CCSc1cc(N=S(C)(C)=O)cnc1-c1nc2cc(C(F)(F)F)ncc2n1C [P20, [5-ethylsulfanyl-6-[3-methyl-6-(trifluoromethyl)imidazo[4,5-c]pyridin-2-yl]-3-pyridyl]imino-dimethyl-oxo-λ^6-sulfane]
≥ 80%: mortality at 200 ppm [1] | percent effect (mortality or growth inhibition) at 200 ppm [8] | percent effect (mortality or growth inhibition) at 200 ppm [2] | mortality at 200 ppm [4] | mortality at 24 ppm [6]

CCS(=O)(=O)c1cc(N=S2(=O)CCOCC2)ccc1-c1nc2cc(C(F)(F)F)ncc2n1C [P21, 4-[3-ethylsulfonyl-4-[3-methyl-6-(trifluoromethyl)imidazo[4,5-c]pyridin-2-yl]phenyl]imino-1,4-oxathiane 4-oxide]
≥ 80%: percent effect (mortality or growth inhibition) at 200 ppm [2] | mortality at 200 ppm [5] | mortality at 24 ppm [6]

CCS(=O)(=O)c1cc(N=S2(=O)CCOCC2)cnc1-c1cn2cnc(C(F)(F)F)cc2n1 [P22, 4-[[5-ethylsulfonyl-6-[7-(trifluoromethyl)imidazo[1,2-c]pyrimidin-2-yl]-3-pyridyl]imino]-1,4-oxathiane 4-oxide]
≥ 80%: mortality at 200 ppm [1] | percent effect (mortality or growth inhibition) at 200 ppm [2] | percent effect (mortality or growth inhibition) at 200 ppm [3] | mortality at 200 ppm [4] | mortality at 200 ppm [5] | mortality at 24 ppm [6] | percent control (mortality, anti-feedant effect or growth inhibition) at 200 ppm [7]
